Laboratory results from ChEMBL document CHEMBL4428074, “The discovery of 2,5-isomers of triazole-pyrrolopyrimidine as selective Janus kinase 2 (JAK2) inhibitors versus JAK1 and JAK3” (Bioorg Med Chem, 2016).

Assays:
[1] = molecular target: Tyrosine-protein kinase JAK1 (Homo sapiens, UniProt P23458)
HEL 92.1.7 [2] = assay: cells; type: functional; settings: Homo sapiens, HEL 92.1.7, 72 h
Description: Antiproliferative activity against HEL 92.1.7 cells assessed as viable cells at 10 uM measured after 3 days by WST-1 assay

[3] = molecular target: T1, Tyrosine-protein kinase JAK3 (Homo sapiens, UniProt P52333)
T1 sequence (P52333 whole entry): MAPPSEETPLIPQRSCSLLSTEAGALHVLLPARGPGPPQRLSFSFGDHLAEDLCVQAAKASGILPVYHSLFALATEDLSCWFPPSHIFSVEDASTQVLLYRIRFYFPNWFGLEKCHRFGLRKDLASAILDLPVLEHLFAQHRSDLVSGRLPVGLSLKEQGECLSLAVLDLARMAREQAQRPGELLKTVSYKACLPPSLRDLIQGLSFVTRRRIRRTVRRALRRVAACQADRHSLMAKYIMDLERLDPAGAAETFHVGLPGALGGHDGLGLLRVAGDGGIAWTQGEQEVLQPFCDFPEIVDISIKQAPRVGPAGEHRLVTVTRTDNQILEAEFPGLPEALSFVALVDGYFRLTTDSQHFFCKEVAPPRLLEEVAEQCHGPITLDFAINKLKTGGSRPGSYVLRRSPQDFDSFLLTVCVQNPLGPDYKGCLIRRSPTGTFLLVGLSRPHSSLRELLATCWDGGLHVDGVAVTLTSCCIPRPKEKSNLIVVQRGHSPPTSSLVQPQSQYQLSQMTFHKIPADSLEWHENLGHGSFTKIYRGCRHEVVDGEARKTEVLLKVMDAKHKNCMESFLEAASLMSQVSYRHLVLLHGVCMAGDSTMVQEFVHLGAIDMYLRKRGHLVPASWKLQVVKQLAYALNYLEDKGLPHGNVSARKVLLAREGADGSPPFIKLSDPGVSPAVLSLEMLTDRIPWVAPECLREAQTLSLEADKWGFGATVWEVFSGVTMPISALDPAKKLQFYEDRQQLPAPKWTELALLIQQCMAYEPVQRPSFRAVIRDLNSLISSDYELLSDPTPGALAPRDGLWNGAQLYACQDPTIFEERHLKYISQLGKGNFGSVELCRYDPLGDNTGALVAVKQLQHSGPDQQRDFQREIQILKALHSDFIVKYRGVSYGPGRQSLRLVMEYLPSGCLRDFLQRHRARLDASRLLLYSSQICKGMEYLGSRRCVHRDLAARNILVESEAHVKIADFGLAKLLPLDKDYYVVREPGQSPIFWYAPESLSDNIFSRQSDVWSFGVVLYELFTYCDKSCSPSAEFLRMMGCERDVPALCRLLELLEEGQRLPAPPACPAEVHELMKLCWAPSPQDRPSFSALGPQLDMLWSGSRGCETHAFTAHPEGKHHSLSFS
Description: Inhibition of JAK3 (unknown origin) measured after 1 hr in presence of ATP by TR-FRET assay

HCC827 = type: functional, Homo sapiens; settings: at 30 µM
Description: Cytotoxicity against wild-type human HCC827 cells at 30 uM measured after 72 hrs by MTT assay

HEL 92.1.7 [4] = type: functional, Homo sapiens
Description: Antiproliferative activity against HEL 92.1.7 cells assessed as inhibition of cell growth

HEL 92.1.7 [5] = assay: cells; settings: Homo sapiens, HEL 92.1.7, 72 h
Description: Antiproliferative activity against HEL 92.1.7 cells assessed as viable cells measured after 3 days by WST-1 assay

Tyrosine-protein kinase JAK1, sequence (P23458 whole entry): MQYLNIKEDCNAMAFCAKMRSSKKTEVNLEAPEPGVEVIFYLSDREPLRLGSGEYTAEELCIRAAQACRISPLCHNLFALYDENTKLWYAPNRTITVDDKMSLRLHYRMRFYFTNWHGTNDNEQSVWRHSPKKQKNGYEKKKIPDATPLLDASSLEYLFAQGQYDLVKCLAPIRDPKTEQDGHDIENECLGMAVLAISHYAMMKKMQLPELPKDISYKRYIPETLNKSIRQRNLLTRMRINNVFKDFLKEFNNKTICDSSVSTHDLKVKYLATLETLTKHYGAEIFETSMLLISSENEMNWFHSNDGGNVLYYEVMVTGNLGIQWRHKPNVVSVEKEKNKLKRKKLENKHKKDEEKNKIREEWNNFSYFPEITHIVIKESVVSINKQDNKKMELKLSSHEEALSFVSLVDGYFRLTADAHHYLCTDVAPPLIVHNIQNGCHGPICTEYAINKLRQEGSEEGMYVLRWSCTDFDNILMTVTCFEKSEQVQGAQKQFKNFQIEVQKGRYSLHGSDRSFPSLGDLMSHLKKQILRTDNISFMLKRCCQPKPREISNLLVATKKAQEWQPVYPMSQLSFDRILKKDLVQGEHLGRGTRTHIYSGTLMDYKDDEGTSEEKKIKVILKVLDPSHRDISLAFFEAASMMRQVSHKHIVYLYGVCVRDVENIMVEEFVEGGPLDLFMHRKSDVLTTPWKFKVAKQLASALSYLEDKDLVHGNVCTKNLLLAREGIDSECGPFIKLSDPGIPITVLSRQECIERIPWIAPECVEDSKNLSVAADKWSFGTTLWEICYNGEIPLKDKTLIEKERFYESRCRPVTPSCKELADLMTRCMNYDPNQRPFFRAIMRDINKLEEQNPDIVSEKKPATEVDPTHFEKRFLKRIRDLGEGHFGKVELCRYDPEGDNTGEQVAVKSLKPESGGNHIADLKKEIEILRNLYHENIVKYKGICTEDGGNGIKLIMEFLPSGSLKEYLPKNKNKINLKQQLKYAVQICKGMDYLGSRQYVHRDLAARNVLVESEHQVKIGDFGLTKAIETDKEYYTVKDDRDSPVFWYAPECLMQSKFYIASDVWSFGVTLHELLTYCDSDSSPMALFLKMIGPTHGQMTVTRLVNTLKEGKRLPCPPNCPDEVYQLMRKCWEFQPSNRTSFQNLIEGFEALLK

IC50 [1]	SMILES	inhibition at 10 µM (HEL 92.1.7 [2])	further results
72 nM	Cc1nn(CCCC#N)nc1-c1ncnc2[nH]ccc12	65.3%	IC50 [3]: 1760 nM
186 nM	Cc1nn(CCCCCC#N)nc1-c1ncnc2[nH]ccc12		
	Cc1nn(CC2CCC2)nc1-c1ncnc2[nH]ccc12	49.8%	
142 nM	C=C(C)Cn1nc(C)c(-c2ncnc3[nH]ccc23)n1	52.7%	
138 nM	Cc1nn(CCCCC#N)nc1-c1ncnc2[nH]ccc12	41.3%	
	Cc1nn(CC2CCCC2)nc1-c1ncnc2[nH]ccc12	64.1%	
82 nM	Cc1nn(CCCC(F)(F)F)nc1-c1ncnc2[nH]ccc12	9.1%	
444 nM	Cc1nn(CC2CC2)nc1-c1ncnc2[nH]ccc12	44.8%	IC50 [3]: 2440 nM
	N#CC[C@H](C1CCCC1)n1cc(-c2ncnc3[nH]ccc23)cn1 [RUXOLITINIB]		inhibition (INH) (HCC827): 16.6%; growth inhibition (GI) (HEL 92.1.7 [4]): 55%; IC50 (HEL 92.1.7 [5]): 14700 nM
